Measurements: US20250275977A1, “DOSAGE REGIMENS FOR TREATMENT WITH DEUTERATED JAK INHIBITORS” (SUN PHARMACEUTICAL INDUSTRIES, INC., priority 2022, published 2025)

Key:
Format in all cases: in vivo, human
[1] = system: adult patients with moderate-to-severe alopecia areata; test: Phase 2a double-blind, randomized, placebo-controlled trial, efficacy by severity of alopecia tool (SALT); settings: for patients who achieved a ≥50% reduction in their overall SALT score: week 24, relative to baseline; for difference from placebo on all SALT measures / patients who achieved a ≥75% reduction in their overall SALT score / patients who achieved a ≥90% reduction in their overall SALT score: week 24; for significant changes in SALT score compared to placebo observed starting at: p<0.05
Text: The efficacy of treatment of hair loss disorders such as alopecia areata can be measured in a variety of ways, some of which are known in the art. For example, the “severity of alopecia tool”, otherwise known as SALT, is a validated assessment scale—developed by the National Alopecia Areata Foundation working committee—to evaluate the degree of hair loss. See, e.g., Olsen E A, Hordinsky M K, Price V H, et al. Alopecia areata investigational assessment guidelines—Part II. J Am Acad Dermatol 2004: 51: 440-447 (incorporated herein by reference). The SALT score is calculated for a patient by measuring the percentage of hair loss in each of the 4 areas of the scalp and adding the total to achieve a composite score. Hair regrowth is reflected by a decrease in the SALT score. For example, no hair on the scalp would have a SALT score of 100 while complete hair regrowth would be a SALT score of 0. In certain embodiments, methods of treatment as described herein can provide a SALT score improvement of at least 10 points after treatment (for example, from a SALT score of 100 prior to treatment to a SALT score of 90 after treatment). In further embodiments, methods of treatment as described herein can provide a SALT score improvement of at least 20 points, 30 points, 40 points, 50 points, 60 points, 70 points, 80 points, 90 points, or 100 points. In certain embodiments, methods of treatment as described herein can provide after treatment at least a 20% improvement from baseline in the patient's SALT score, or at least a 30% improvement from baseline in the patient's SALT score, or at least a 40% improvement from baseline in the patient's SALT score, or at least a 50% improvement from baseline in the patient's SALT score, or at least a 60% improvement from baseline in the patient's SALT score, or at least a 70% improvement from baseline in the patient's SALT score, or at least a 75% improvement from baseline in the patient's SALT score or at least a 80% improvement from baseline in the patient's SALT score, or at least a 90% improvement from baseline in the patient's SALT score.
(§1) A Phase 2a trial was conducted to evaluate the safety and efficacy of Compound (I) (CTP-543) in subjects with alopecia, with the primary efficacy analysis at week 24. The Phase 2a trial was a double-blind, randomized, placebo-controlled trial to evaluate the safety and efficacy of Compound (I) in adult patients with moderate-to-severe alopecia areata. Patients were sequentially randomized to receive one of three doses of Compound I as the phosphate salt (e.g., 10.5 mg of Compound (I) phosphate salt is equivalent 8 mg of Compound (I) free base). The doses of Compound (I) were 4, 8 (i.e., about 10.5 mg of Compound (I) phosphate salt), and 12 mg twice daily, and there was also a patient group receiving placebo. The primary outcome measure utilized the severity of alopecia tool (SALT) after 24 weeks of dosing.
Interim top line analysis for the 4 mg, 8 mg, and 12 mg cohorts is discussed below. The primary endpoint for the study was a 50% relative reduction in SALT between Week 24 and baseline.

[2] = system: adult patients with moderate-to-severe alopecia areata; test: Phase 2a trial, safety: treatment emergent adverse events by patient
Procedure: as §1

[3] = system: subjects with alopecia areata; test: Open-label extension study (OLE), SALT score after dose reduction
Procedure: In an ongoing open-label extension study, subjects who were previously enrolled in a qualifying clinical study (including the study described in Example 1) and received either a total daily dose of 16 mg of Compound (I) (CTP-543, phosphate salt), a total daily dose of 24 mg of CTP-543, or placebo, and completed through the 24-week treatment period, were eligible to enroll in an open-label extension study (OLE) and continue to receive treatment with CTP-543 phosphate. A total of 152 subjects were enrolled in the OLE. In the OLE, subjects received daily treatment with CTP-543 at a dose of 8 mg BID or 12 mg BID (see FIG. 8). Dose adjustments were allowed at the investigator's discretion. One subject enrolled in the OLE, who received a daily dose of 24 mg QD of CTP-543 for approximately 9 months (i.e., the 24-week study period and the initial 3 months of the OLE), experienced hair growth at that dose (SALT score of zero, i.e., full regrowth of hair prior to dose reduction). The subject then had their dose reduced to a daily dose of 8 mg BID of CTP-543 phosphate. After approximately 7 months in the OLE receiving the lower daily dose of 8 mg BID of CTP-543, the subject continued to substantially maintain hair regrowth, with a SALT score of 7.92.

[2H]C1([2H])C([C@@H](CC#N)n2cc(-c3ncnc4[nH]ccc34)cn2)C([2H])([2H])C([2H])([2H])C1([2H])[2H] [CTP-543, (R)-3-(4-(7H-pyrrolo[2,3-d]pyrimidin-4-yl)-1H-pyrazol-1-yl)-3-(cyclopentyl-2,2,3,3,4,4,5,5-d8)propanenitrile]
separation from placebo on all measures ([1]; 4 mg BID): failed to separate from placebo on all measures
patients who achieved a ≥50% reduction in their overall SALT score ([1]; 4 mg BID): 21%
difference from placebo on all SALT measures ([1]; 8 mg BID): significantly different from placebo
patients who achieved a ≥75% reduction in their overall SALT score ([1]; 8 mg BID): 29%
patients who achieved a ≥90% reduction in their overall SALT score ([1]; 8 mg BID): 16%
patients who achieved a ≥50% reduction in their overall SALT score ([1]; 8 mg BID): 47%
significant changes in SALT score compared to placebo observed starting at ([1]; 8 mg cohort): 12 weeks
12 mg BID dose compared to the 8 mg BID dose ([1]; 12 mg BID vs 8 mg BID): numerically superior and generally produced faster onset and greater effect
difference from placebo on all SALT measures ([1]; 12 mg BID): significantly different from placebo
patients who achieved a ≥75% reduction in their overall SALT score ([1]; 12 mg BID): 42%
patients who achieved a ≥90% reduction in their overall SALT score ([1]; 12 mg BID): 36%
patients who achieved a ≥50% reduction in their overall SALT score ([1]; 12 mg BID): 58%
significant changes in SALT score compared to placebo observed starting at ([1]; 12 mg cohort): 12 weeks
Acne, patients with event ([2]; 4 mg twice daily): 4
Acne, percent of patients ([2]; 4 mg twice daily): (13.8%)
Blood creatine phosphokinase increased, patients with event ([2]; 4 mg twice daily): 3
Blood creatine phosphokinase increased, percent of patients ([2]; 4 mg twice daily): (10.3%)
Cough, patients with event ([2]; 4 mg twice daily): 4
Cough, percent of patients ([2]; 4 mg twice daily): (13.8%)
Diarrhoea, patients with event ([2]; 4 mg twice daily): 3
Diarrhoea, percent of patients ([2]; 4 mg twice daily): (10.3%)
Folliculitis, patients with event ([2]; 4 mg twice daily): 3
Folliculitis, percent of patients ([2]; 4 mg twice daily): (10.3%)
Headache, patients with event ([2]; 4 mg twice daily): 5
Headache, percent of patients ([2]; 4 mg twice daily): (17.2%)
LDL increase, patients with event ([2]; 4 mg twice daily): 0
Nasopharyngitis, patients with event ([2]; 4 mg twice daily): 3
Nasopharyngitis, percent of patients ([2]; 4 mg twice daily): (10.3%)
Nausea, patients with event ([2]; 4 mg twice daily): 4
Nausea, percent of patients ([2]; 4 mg twice daily): (13.8%)
Oroharyngeal pain, patients with event ([2]; 4 mg twice daily): 3
Oroharyngeal pain, percent of patients ([2]; 4 mg twice daily): (10.3%)
Upper respiratory tract infection, patients with event ([2]; 4 mg twice daily): 2
Upper respiratory tract infection, percent of patients ([2]; 4 mg twice daily): (6.9%)
Acne, patients with event ([2]; 8 mg twice daily): 4
Acne, percent of patients ([2]; 8 mg twice daily): (10.5%)
Blood creatine phosphokinase increased, patients with event ([2]; 8 mg twice daily): 2
Blood creatine phosphokinase increased, percent of patients ([2]; 8 mg twice daily): (5.3%)
Cough, patients with event ([2]; 8 mg twice daily): 1
Cough, percent of patients ([2]; 8 mg twice daily): (2.6%)
Diarrhoea, patients with event ([2]; 8 mg twice daily): 1
Diarrhoea, percent of patients ([2]; 8 mg twice daily): (2.6%)
Folliculitis, patients with event ([2]; 8 mg twice daily): 2
Folliculitis, percent of patients ([2]; 8 mg twice daily): (5.3%)
Headache, patients with event ([2]; 8 mg twice daily): 10
Headache, percent of patients ([2]; 8 mg twice daily): (26.3%)
LDL increase, patients with event ([2]; 8 mg twice daily): 4
LDL increase, percent of patients ([2]; 8 mg twice daily): (10.5%)
Nasopharyngitis, patients with event ([2]; 8 mg twice daily): 3
Nasopharyngitis, percent of patients ([2]; 8 mg twice daily): (7.9%)
Nausea, patients with event ([2]; 8 mg twice daily): 4
Nausea, percent of patients ([2]; 8 mg twice daily): (10.5%)
Oroharyngeal pain, patients with event ([2]; 8 mg twice daily): 2
Oroharyngeal pain, percent of patients ([2]; 8 mg twice daily): (5.3%)
Upper respiratory tract infection, patients with event ([2]; 8 mg twice daily): 2
Upper respiratory tract infection, percent of patients ([2]; 8 mg twice daily): (5.3%)
Acne, patients with event ([2]; 12 mg twice daily): 6
Acne, percent of patients ([2]; 12 mg twice daily): (16.7%)
Blood creatine phosphokinase increased, patients with event ([2]; 12 mg twice daily): 1
Blood creatine phosphokinase increased, percent of patients ([2]; 12 mg twice daily): (2.8%)
Cough, patients with event ([2]; 12 mg twice daily): 2
Cough, percent of patients ([2]; 12 mg twice daily): (5.6%)
Diarrhoea, patients with event ([2]; 12 mg twice daily): 0
Folliculitis, patients with event ([2]; 12 mg twice daily): 1
Folliculitis, percent of patients ([2]; 12 mg twice daily): (2.8%)
Headache, patients with event ([2]; 12 mg twice daily): 7
Headache, percent of patients ([2]; 12 mg twice daily): (19.4%)
LDL increase, patients with event ([2]; 12 mg twice daily): 0
Nasopharyngitis, patients with event ([2]; 12 mg twice daily): 9
Nasopharyngitis, percent of patients ([2]; 12 mg twice daily): (25.0%)
Nausea, patients with event ([2]; 12 mg twice daily): 1
Nausea, percent of patients ([2]; 12 mg twice daily): (2.8%)
Oroharyngeal pain, patients with event ([2]; 12 mg twice daily): 1
Oroharyngeal pain, percent of patients ([2]; 12 mg twice daily): (2.8%)
Upper respiratory tract infection, patients with event ([2]; 12 mg twice daily): 7
Upper respiratory tract infection, percent of patients ([2]; 12 mg twice daily): (19.4%)
serious adverse events ([2]; 4, 8 and 12 mg BID, 24 weeks): no serious adverse events
tolerability of treatment ([2]; 4, 8 and 12 mg BID, 24 weeks): generally well-tolerated
Grade 3/4 hematology events ([2]; preliminary analysis, total, distributed equally across the placebo, 4 mg and 8 mg groups): 3
SALT score ([3]; one subject, 24 mg QD for approximately 9 months, prior to dose reduction): zero
SALT score ([3]; same subject, after approximately 7 months at the reduced dose of 8 mg BID): 7.92
